Test results reported in patent US10435388B2, “Selective inhibitors of clinically important mutants of the EGFR tyrosine kinase” (CS PHARMATECH LIMITED, priority 2016, dated 2019).
Several values for one entry are separate records, joined by “and”; a condition that tells them apart may be missing. Equal entries are not always repeated. Where two headings read alike, the source gives them in different places.

Experiments:
EGFR_d746-750 = EGFR_d746-750 (Homo sapiens, UniProt P00533, DEL746-750); assay: Enzyme assay, IC50 for single mutant EGFR_d746-750 (Caliper); assay type: biochemical; conditions: enzyme phosphorylation assay
Chain of EGFR_d746-750 (P00533 with tags, fused parts or gaps DEL746-750): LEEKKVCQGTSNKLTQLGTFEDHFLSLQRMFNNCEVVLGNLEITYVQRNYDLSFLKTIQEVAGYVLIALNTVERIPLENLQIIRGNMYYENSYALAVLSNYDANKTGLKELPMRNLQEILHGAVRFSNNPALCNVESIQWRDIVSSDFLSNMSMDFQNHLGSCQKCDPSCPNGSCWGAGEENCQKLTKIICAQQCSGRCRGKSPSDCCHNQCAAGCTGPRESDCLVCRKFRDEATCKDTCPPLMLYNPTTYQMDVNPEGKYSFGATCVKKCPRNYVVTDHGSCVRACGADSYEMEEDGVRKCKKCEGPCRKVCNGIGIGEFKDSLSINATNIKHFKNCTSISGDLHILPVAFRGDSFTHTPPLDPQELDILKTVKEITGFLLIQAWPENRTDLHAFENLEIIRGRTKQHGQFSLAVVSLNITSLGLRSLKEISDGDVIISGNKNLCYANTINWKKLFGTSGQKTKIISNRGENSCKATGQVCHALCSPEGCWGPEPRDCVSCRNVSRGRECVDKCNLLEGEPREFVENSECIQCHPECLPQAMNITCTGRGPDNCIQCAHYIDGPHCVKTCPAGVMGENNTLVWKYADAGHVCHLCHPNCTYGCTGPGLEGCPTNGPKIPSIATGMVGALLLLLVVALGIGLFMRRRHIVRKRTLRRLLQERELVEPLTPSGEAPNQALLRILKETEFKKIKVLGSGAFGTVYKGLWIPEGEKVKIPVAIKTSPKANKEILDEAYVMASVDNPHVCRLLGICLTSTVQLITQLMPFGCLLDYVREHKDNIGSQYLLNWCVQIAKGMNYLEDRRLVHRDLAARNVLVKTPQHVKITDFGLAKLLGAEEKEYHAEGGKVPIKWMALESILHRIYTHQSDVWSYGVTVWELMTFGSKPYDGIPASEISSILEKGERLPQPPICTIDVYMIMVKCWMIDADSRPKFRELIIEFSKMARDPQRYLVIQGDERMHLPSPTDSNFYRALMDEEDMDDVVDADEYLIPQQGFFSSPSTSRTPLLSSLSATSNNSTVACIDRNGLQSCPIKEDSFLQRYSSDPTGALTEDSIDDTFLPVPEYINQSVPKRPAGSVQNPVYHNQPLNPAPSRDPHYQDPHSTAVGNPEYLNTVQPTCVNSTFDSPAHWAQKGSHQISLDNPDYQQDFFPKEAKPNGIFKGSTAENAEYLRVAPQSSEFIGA
Description: (§1) Using the same technique as described in the previous paragraph, various mutated forms of the epidermal growth factor receptor may be isolated from appropriate cell lines which contain them. For example, the EGFR de1746-750 mutant protein may be extracted from PC-9 cells, and the L858R/T790M double mutant EGFR protein may be isolated from H1975 cells.
Determination of IC50 Values for Single Mutant EGFR_d746-750
Dilute all compounds to 500 μM stock solutions in 100% DMSO and make a serial of 4-fold dilution for 10 doses. “Max” and “Min” control contain 100% DMSO. “Max” stands for […], “Min” stands for low control without compounds. Transfer 10 μl of compounds to 90 μl of 1× kinase base buffer to make intermediate dilution. […] Incubate at RT for 1 hr and 25 μl stop buffer to end up reaction. Collect conversion data from Caliper and conversion data from Caliper program. Fit the data in XLfit to obtain IC50 values.

EGFR_T790M/L858R = EGFR_T790M/L858R (Homo sapiens, UniProt P00533, L858R/T790M); assay: Enzyme assay, IC50 for double-mutant EGFR (EGFR_T790M/L858R) (Caliper); assay type: biochemical; conditions: enzyme phosphorylation assay; read-out: EGFR_L858R/T790 IC50
Chain of EGFR_T790M/L858R (P00533 25-1210 T790M/L858R): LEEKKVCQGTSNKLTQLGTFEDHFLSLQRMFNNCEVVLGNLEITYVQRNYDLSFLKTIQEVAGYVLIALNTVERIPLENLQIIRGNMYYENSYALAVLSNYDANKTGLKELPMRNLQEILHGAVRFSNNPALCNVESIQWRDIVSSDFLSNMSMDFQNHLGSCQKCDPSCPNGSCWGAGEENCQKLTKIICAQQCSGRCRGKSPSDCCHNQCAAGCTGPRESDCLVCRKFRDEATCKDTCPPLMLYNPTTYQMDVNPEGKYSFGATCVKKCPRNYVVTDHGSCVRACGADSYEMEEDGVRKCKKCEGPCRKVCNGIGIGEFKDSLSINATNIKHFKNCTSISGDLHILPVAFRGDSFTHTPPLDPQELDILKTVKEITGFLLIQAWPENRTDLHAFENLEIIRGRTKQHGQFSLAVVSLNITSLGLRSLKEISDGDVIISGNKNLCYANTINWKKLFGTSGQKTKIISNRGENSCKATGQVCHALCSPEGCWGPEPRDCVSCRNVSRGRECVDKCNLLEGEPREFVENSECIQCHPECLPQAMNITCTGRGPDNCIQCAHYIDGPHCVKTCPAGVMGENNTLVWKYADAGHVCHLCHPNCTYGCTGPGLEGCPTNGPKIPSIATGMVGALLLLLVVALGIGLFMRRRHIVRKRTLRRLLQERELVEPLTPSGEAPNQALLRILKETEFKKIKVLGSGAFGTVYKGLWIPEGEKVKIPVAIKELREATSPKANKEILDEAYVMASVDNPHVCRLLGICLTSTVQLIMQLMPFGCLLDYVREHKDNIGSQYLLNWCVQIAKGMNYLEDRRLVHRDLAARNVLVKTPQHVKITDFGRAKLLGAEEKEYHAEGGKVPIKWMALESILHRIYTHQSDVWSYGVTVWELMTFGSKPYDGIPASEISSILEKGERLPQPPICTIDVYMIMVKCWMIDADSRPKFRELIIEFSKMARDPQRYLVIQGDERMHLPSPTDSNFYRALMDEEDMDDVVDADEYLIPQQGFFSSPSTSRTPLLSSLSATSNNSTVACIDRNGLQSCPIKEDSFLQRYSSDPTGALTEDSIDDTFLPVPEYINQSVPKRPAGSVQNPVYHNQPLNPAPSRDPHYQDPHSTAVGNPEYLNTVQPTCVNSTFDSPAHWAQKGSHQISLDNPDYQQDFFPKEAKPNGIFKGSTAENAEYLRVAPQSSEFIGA
Description: as §1
Determination of IC50 Values for Double-Mutant EGFR (EGFR_T790M/L858R)
Dilute all compounds to 500 μM stock solutions in 100% DMSO and make a serial of 4-fold dilution for 10 does. “Max” and “Min” control contain 100% DMSO. “Max” stands for […], “Min” stands for low control without compounds. Transfer 10 μl of compounds to 90 μl of 1× kinase base buffer to make intermediate dilution. […] Incubate at RT for 1 hr and 25 μl stop buffer to end up reaction. Collect conversion data from Caliper and conversion data from Caliper program. Fit the data in XLfit to obtain IC50 values.

Wt EGFR = biological target: T1, Wt EGFR (Homo sapiens, UniProt P00533); assay: Enzyme assay, IC50 for wt EGFR (Caliper); assay type: biochemical; conditions: enzyme phosphorylation assay; read-out: EGFR_WT IC50
T1 construct: isolated from A431 human epidermoid carcinoma cells which overexpress EGF receptor; endogenous in cells; host or cells: A431 human epidermoid carcinoma cells (receptor purified on wheat germ agglutinin sepharose)
T1 sequence (P00533 25-1210): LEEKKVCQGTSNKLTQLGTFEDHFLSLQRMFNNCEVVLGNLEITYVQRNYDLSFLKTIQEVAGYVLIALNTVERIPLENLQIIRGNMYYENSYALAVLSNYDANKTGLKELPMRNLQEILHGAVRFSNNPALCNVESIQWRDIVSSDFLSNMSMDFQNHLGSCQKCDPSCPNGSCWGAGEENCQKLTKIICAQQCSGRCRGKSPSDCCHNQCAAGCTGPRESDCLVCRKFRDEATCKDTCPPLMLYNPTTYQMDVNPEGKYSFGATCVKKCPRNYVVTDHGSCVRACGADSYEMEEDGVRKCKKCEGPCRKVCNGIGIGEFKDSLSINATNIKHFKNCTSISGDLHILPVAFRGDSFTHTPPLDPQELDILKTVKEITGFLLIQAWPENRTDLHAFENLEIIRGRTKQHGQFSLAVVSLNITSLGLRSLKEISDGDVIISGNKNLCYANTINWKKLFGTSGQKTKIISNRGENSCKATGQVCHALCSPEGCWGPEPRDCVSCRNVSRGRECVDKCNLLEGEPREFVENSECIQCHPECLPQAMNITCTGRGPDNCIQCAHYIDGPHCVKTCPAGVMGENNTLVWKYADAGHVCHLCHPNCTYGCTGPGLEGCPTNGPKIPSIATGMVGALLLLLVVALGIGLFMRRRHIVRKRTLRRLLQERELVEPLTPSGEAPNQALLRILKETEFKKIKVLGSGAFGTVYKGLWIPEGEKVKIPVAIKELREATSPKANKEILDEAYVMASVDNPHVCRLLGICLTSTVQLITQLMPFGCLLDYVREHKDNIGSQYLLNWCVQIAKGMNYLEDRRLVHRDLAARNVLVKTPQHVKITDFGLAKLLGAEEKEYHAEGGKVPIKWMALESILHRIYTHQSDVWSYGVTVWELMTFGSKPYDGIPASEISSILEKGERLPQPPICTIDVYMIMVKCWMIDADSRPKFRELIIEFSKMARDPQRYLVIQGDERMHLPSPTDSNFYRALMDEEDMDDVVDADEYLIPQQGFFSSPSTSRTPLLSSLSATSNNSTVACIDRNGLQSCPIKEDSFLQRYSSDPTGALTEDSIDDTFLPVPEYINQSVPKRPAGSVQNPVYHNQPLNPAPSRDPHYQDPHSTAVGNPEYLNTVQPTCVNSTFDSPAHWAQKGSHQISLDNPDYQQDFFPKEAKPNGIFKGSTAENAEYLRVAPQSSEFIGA
Description: Purification of Epidermal Growth Factor Receptor Tyrosine Kinase Human EGF receptor tyrosine kinase was isolated from A431 human epidermoid carcinoma cells which overexpress EGF receptor by the following methods. Cells were grown in roller bottles in 50% Delbuco's Modified Eagle and 50% HAM F-12 nutrient media (Gibco) containing 10% fetal calf serum. Approximately 10^9 cells were lysed in two volumes of buffer containing 20 mM 2-(4N-[2-hydroxyethyl]piperazin-1-yl)ethanesulfonic acid (hepes), pH 7.4, 5 mM ethylene glycol bis(2-aminoethyl ether) N,N,N′,N′-tetraacetic acid, 1% Triton X-1OO, 10% glycerol. 0.1 mM sodium orthovanadate, 5 mM sodium fluoride, 4 mM pyrophosphate, 4 mM benzamide, 1 mM dithiothreitol, 80 μg/mL aprotinin, 40 μg/mL leupeptin and 1 mM phenylmethylsulfonyl fluoride. After centrifugation at 25,000×g for 10 minutes, the supernatant was equilibrated for 2 h at […], with 10 mL of wheat germ agglutinin sepharose that was previously equilibrated with 50 mM Hepes, 10% glycerol, 0.1% Triton X-100 and 150 mM NaCl, pH 7.5, (equilibration buffer). Contaminating proteins were washed from the resin with 1M NaCl in equilibration buffer, and the enzyme was eluted with 0.5M N-acetyl-1-D-glucosamine in equilibration buffer, followed by 1 mM urea. The enzyme was eluted with 0.1 mg/ml EGF.
Determination of IC50 Values for Wt EGFR
Dilute all compounds to 500 μM stock solutions in 100% DMSO and make a serial of 4-fold dilution for 10 does. “Max” and “Min” control contain 100% DMSO. “Max” stands for […], “Min” stands for low control without compounds. Transfer 10 μl of compounds to 90 μl of Ix kinase base buffer to make intermediate dilution. Transfer 5 μl of intermediate dilution compounds to the 384-well assay plate, then 10 μl 2.5× enzyme buffer containing (20 nM EGFR, 5 mM DTT, 1× kinase base buffer) were added to assay plate. […] Incubate at RT for 1 hr and 25 μl stop buffer to end up reaction. Collect conversion data from Caliper and conversion data from Caliper program. Fit the data in XLfit to obtain IC50 values.

[1] = test system: PC9 cells (EGFR d746-750 single mutant); assay: PC-9 growth inhibition assay (cell proliferation), Method A; assay type: cell-based, human; conditions: Homo sapiens, PC-9; cellular proliferation, PC9 cells, 72 h, CellTiter-Glo (Table 1); read-out: PC9 IC50 (nM) SM
Description: (§2) Cell Proliferation Assays—Method A
(§3) The final concentration was 4,000 cells/well. Add medium only as low control.
(§4) Day-2: Test compounds were dissolved in DMSO at 0.2 mM (200×).
(§5) Day-5: After 72 hours incubation, remove the plates from incubator and equilibrate at room temperature for 15 minutes. Incubate the CellTiter Glo reagents (Promega, G9243) at 37° C. before the experiment. The buffer was equilibrated to room temperature and used to dissolve the substrate. To determine the cell viability, add 30 μL of CellTiter-Glo reagent into each well to be detected. Then shake the plates at room temperature for 10 min and followed by plate read on Envision (PerkinElmer).
(§6) For estimation of IC50, the luminescence readout are transformed to % Inhibition by applying the following equation: The IC50 was then
(§7) [formula] calculated by fitting in XLFit to a four parameters logistic curve.
PC-9 Growth Inhibition Assay (Cell Proliferation)
The inhibition assay for PC-9 cells was processed in the same manner as described for the H1975 cells.

[2] = test system: NCI-H1975 cells (EGFR L858R/T790 double mutant); assay: H1975 inhibition assay (cell proliferation), Method A; assay type: cell-based; conditions: Homo sapiens; cellular proliferation, NCI-H1975 cells, 72 h, CellTiter-Glo (Table 1); read-out: NCI-H1975 IC50 (nM) DM
Description: as §2
H1975 Inhibition Assay (Cell Proliferation)
as §3, §4, §5, §6, §7

[3] = test system: LoVo cells (unmutated EGFR wild type); assay: LoVo growth inhibition assay (cell proliferation), Method A; assay type: cell-based; conditions: Homo sapiens, cellular proliferation, 72 h, CellTiter-Glo (Table 1), read-out: LoVo IC50 (nM) WT
Description: as §2
LoVo Growth Inhibition Assay (Cell Proliferation)
The rest of the procedure was carried out in the same manner as described for the H1975 cells.

[4] = test system: p-EGFR in PC9 cells (Exon 19 deletion EGFR); assay: Exon19 deletion EGFR (activating single mutant) PC-9 cellular autophosphorylation assay; assay type: cell-based, human; conditions: 2 h treatment, ELISA
Description: Cellular EGFR Autophosphorylation Assays.
The human lung cell line PC9 (Exon 19 deletion EGFR) is obtained from the American type Culture Collection. […] Cells are grown in a humidified incubator at 37° C. with 5% CO2, Assays to measure cellular phosphorylation of endogenous p-EGFR in cell Iysates are carried out according to the protocol described in the R&D Systems DuoSet IC Human Phospho-EGF R ELISA (R&D Systems catalogue number #DYCI095). 40 μL of cells are seeded (10000 cells/well) in growth medium in Corning black, clear-bottomed 384-well plates and incubated at 37° C., with 5%0/CO2 overnight. […] Plates are incubated for a further 2 h, then following aspiration of medium, 40 μL×lysis buffer is added to each well. Greiner black high bind 384 well plates are coated with capture antibody and then blocked with 3% BSA. Following removal of block, 15 μL of lysate are transferred to the Greiner black high bind 384 well plates and incubated for 2 hours. Following aspiration and washing of the plates with PBS, 20 μL of detection antibody are added and incubated for 2 hours. […] The data obtained with each compound are exported into a suitable software package (such as Origin) to perform curve fitting analysis.

IGF-1R = biological target: T2, IGF-1R (Homo sapiens, UniProt P08069); assay: IGF-1R inhibition assay (Caliper EZ Reader); assay type: biochemical; conditions: enzyme assay
T2 construct: purchased CARNA BIOSCIENCE 08-141
T2 sequence (P08069 959-1367 limits assumed): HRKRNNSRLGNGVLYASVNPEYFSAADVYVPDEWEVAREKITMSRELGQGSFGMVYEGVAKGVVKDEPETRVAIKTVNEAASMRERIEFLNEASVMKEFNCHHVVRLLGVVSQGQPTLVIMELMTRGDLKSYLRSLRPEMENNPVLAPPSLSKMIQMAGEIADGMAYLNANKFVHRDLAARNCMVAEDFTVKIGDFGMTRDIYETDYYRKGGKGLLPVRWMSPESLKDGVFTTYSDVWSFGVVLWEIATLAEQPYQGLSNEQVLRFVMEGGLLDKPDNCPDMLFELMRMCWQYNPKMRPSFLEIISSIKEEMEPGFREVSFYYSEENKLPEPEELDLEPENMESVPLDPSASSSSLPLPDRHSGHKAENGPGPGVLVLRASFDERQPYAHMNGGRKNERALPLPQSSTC
Description: (§8) Test compound was dissolved in DMSO at 30 mM. […] 20 nL of these compounds DMSO dilutes were dispensed into a new 384-well assay plate by Echo 550. […] 15 uL of kinase assay buffer containing IGF-1R protein and substrate was transferred to assay plate and incubate at RT for 30 minutes. Kinase assay buffer supplemented with substrate peptides was employed as low control to monitor the background. 40 μM ATP was prepared in kinase assay buffer containing and 5 μL of ATP solution was added to each well to start the reaction. The assay plate was incubated at 25° C. for 180 minutes and the reaction was stopped by adding 40 μL of 0.5 M EDTA.
Phosphorylated fluorescent-tagged peptides were differentiated from non-phosphorylated peptides by separating using Caliper EZ Reader II and the detection was directly converted to conversion ratio.

INSR = biological target: T3, INSR (Homo sapiens, UniProt P06213); assay: INSR inhibition assay (Caliper EZ Reader); assay type: biochemical; conditions: enzyme assay
T3 construct: purchased CARNA BIOSCIENCE 08-142
Description: as §8, with “INSR” for “IGF-1R”, “LM” for “μM”
The result is analyzed in the same manner of […].

[5] = test system: p-EGFR in H1975 cells (L858R/T790M double mutant EGFR)

IC50 (EGFR_d746-750)	IC50 (EGFR_T790M/L858R)	IC50 (Wt EGFR)	IC50 [1]	IC50 [2]	IC50 [3]	Structure (SMILES)	IC50 [4]	IC50 ([4]; Homo sapiens, PC-9, 2 h)	IC50 (IGF-1R)	IC50 (INSR)	IC50 ([5]; Homo sapiens, NCI-H1975, 2 h, read-out: H1975 IC50 (nM), cellular EGFR autophosphorylation, 2 h treatment, ELISA)	IC50 ([5]; read-out: H1975 IC50, cellular EGFR autophosphorylation, 2 h treatment, ELISA)
1 nM	1.8 nM	5 nM	6.1 nM	3.7 nM	2980 nM	C=CC(=O)Nc1cc(Nc2nccc(-c3c(C)[nH]c4ccccc34)n2)c(OC)cc1N(C)CCN(C)C [Example 14, N-(2-(N-(2-(N,N-Dimethylamino)ethyl)-N-methylamino)-4-methoxy-5-(4-(2-methylindol-3-yl)pyrimidin-2-ylamino)phenyl) propenamide]						
1.1 nM	1.5 nM	1.9 nM	3.3 nM	2.9 nM	13500 nM	C=CC(=O)Nc1cc(Nc2nccc(-c3n[nH]c4ccccc34)n2)c(OC)cc1N(C)CCN(C)C [Example 15, N-(2-(N-(2-(N,N-Dimethylamino)ethyl)-N-methylamino)-4-methoxy-5-(4-(indazol-3-yl)pyrimidin-2-ylamino)phenyl) propenamide]						
1.7 nM	1.5 nM	6.7 nM	9.9 nM	5.6 nM	5810 nM	C=CC(=O)Nc1cc(Nc2nccc(N3CCc4ccccc43)n2)c(OC)cc1N(C)CCN(C)C [Example 13, N-(2-(N-(2-(N,N-Dimethylamino)ethyl)-N-methylamino)-4-methoxy-5-(4-(2,3-dihydroindol-1-yl)pyrimidin-2-ylamino)phenyl) propenamide]						

Second part, the molecule before the results:

Structure (SMILES)	IC50 (EGFR_d746-750)	IC50 (EGFR_T790M/L858R)	IC50 (Wt EGFR)	IC50 [1]	IC50 [2]	IC50 [3]	IC50 [4]	IC50 ([4]; Homo sapiens, PC-9, 2 h)	IC50 (IGF-1R)	IC50 (INSR)	IC50 ([5]; Homo sapiens, NCI-H1975, 2 h, read-out: H1975 IC50 (nM), cellular EGFR autophosphorylation, 2 h treatment, ELISA)	IC50 ([5]; read-out: H1975 IC50, cellular EGFR autophosphorylation, 2 h treatment, ELISA)
C=CC(=O)Nc1cc(Nc2nccc(-n3ccc4ccccc43)n2)c(OC)cc1N(C)CCN(C)C [Example 1]	2.4 nM	0.7 nM	4.1 nM	6.8 nM	3.1 nM	3570 nM						
C=CC(=O)Nc1cc(Nc2nccc(-c3cn(C)c4ccccc34)n2)c(OC)cc1N(C)CCN(C)C [AZD-9291]				8.4 nM	[…]	2860 nM	7.31 nM	12.1 nM	249 nM and 321 nM	[…]	22.7 nM	11.6 nM
C=CC(=O)Nc1cc(Nc2nccc(-n3cc(CO)c4ccccc43)n2)c(OC)cc1N(C)CCN(C)C [Example 8, N-(2-(N-(2-(N,N-Dimethylamino)ethyl)-N-methylamino)-4-methoxy-5-(4-(3-(hydroxymethyl)indol-1-yl)pyrimidin-2-ylamino)phenyl) propenamide]	1.2 nM	1.8 nM	2.1 nM	3.5 nM	2.9 nM	6650 nM						
C=CC(=O)Nc1cc(Nc2nccc(-n3cc(C(N)=O)c4ccccc43)n2)c(OC)cc1N(C)CCN(C)C [Example 7, N-(2-(N-(2-(N,N-Dimethylamino)ethyl)-N-methylamino)-4-methoxy-5-(4-(3-carboxamidoindol-1-yl)pyrimidin-2-ylamino)phenyl) propenamide]	0.85 nM	1.2 nM	1.1 nM	1.6 nM	1.7 nM	2630 nM						
C=CC(=O)Nc1cc(Nc2nccc(-n3cc(C#N)c4ccccc43)n2)c(OC)cc1N(C)CCN(C)C [Example 4, N-(2-(N-(2-(N,N-Dimethylamino)ethyl)-N-methylamino)-4-methoxy-5-(4-(3-cyanoindol-1-yl)pyrimidin-2-ylamino)phenyl) propenamide]	2.6 nM	0.84 nM	3.8 nM	25.9 nM	18.8 nM	2890 nM						
